The structures appear in SMILES notation.

Assay [1] deals with HaCaT cells (EGFR expressing cell line). Kind of assay: HaCaT cell proliferation inhibitory activity (CellTiter-Glo, 72 hours). Type of assay: cell-based. To be noted: Homo sapiens. An outline of the steps: (§1)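 SK-BR-3 and BT-474 cells were plated at 5000/well 48 h ahead, and N-87 (5000) and HaCaT (3000) 24 h ahead. Compounds were tested at 11 DMSO-diluted concentrations: 0.2 nM–10 μM for SK-BR-3/BT-474, […]–5 μM for N-87 and 0.8 nM–45 μM for HaCaT. GI50 came from growth % versus control, in triplicate.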

Assay [2] deals with SK-BR-3 cells (HER2 overexpressing cell line). In words: SK-BR-3 cell proliferation inhibitory activity (CellTiter-Glo, 120 hours). To be noted: Homo sapiens. Type of assay: cell-based. An outline of the steps: as §1

Broadly, the GI50 is the concentration giving 50% growth inhibition. `C=CC(=O)N1CCC(F)(F)C(Oc2cc3c(Nc4cc(-c5ccc(F)cc5F)ccc4OC)ncnc3cc2OC)C1` (centres unmarked) [Example 141, 1-(3-((4-((2′,4′-difluoro-4-methoxy-[1,1′-biphenyl]-3-yl)amino)-7-methoxy-quinazolin-6-yl)oxy)-4,4-difluoro-piperidin-1-yl)prop-2-en-1-one]: the figures for the concentration for 50% growth inhibition (GI50) in assay [1] and in assay [2] were 150 to 1000 nM and more than 1000 nM, respectively.

For the compound `C=CC(=O)N1CCC(Oc2cc3c(Nc4cc(-c5cccs5)ccc4OC)ncnc3cc2OC)C(F)C1` (centres unmarked) [Example 144, 1-(3-fluoro-4-((7-methoxy-4-((2-methoxy-5-(thiophen-2-yl)phenyl)amino)quinazolin-6-yl)oxy)piperidin-1-yl)prop-2-en-1-one], the GI50 in assay [1] and in assay [2] was not above 150 nM in each case.

For the compound `C=CC(=O)N1CCC(Oc2cc3c(Nc4cc(-c5cc(F)cnc5F)ccc4OC)ncnc3cc2OC)CC1` [Example 145, 1-(4-((4-((5-(2,5-difluoropyridin-3-yl)-2-methoxyphenyl)amino)-7-methoxy-quinazolin-6-yl)oxy)piperidin-1-yl)prop-2-en-1-one], the GI50 in assay [1] and in assay [2] was not above 150 nM each time.

`C=CC(=O)N1CCC(Oc2cc3c(Nc4cc(-c5ccc(F)nc5F)ccc4OC)ncnc3cc2OC)CC1` [Example 147, 1-(4-((4-((5-(2,6-difluoropyridin-3-yl)-2-methoxyphenyl)amino)-7-methoxy-quinazolin-6-yl)oxy)piperidin-1-yl)prop-2-en-1-one]: the GI50 in assay [1] and in assay [2] was 150 to 1000 nM in each case.

Regarding `C=CC(=O)N1CCC(Oc2cc3c(Nc4cc(-c5ccco5)ccc4OC)ncnc3cc2OC)C(C)C1` (centres unmarked) [Example 148, 1-(4-((4-((5-(furan-2-yl)-2-methoxyphenyl)amino)-7-methoxy-quinazolin-6-yl)oxy)-3-methylpiperidin-1-yl)prop-2-en-1-one], the GI50 in assay [1] and in assay [2] was not above 150 nM throughout.

For `C=CC(=O)N1CCC(Oc2cc3c(Nc4cc(-c5ccncc5)ccc4OC)ncnc3cc2OC)CC1` [Example 149, 1-(4-((7-methoxy-4-((2-methoxy-5-(pyridin-4-yl)phenyl)amino)quinazolin-6-yl)oxy)piperidin-1-yl)prop-2-en-1-one], the 50% growth inhibitory concentration (GI50) in assay [1] and in assay [2] was 150 to 1000 nM throughout.

Turning to `C=CC(=O)N1CCCC(Oc2cc3c(Nc4cc(-c5ccco5)ccc4OC)ncnc3cc2OC)C1` (centres unmarked) [Example 162, 1-(3-((4-((5-(furan-2-yl)-2-methoxyphenyl)amino)-7-methoxy-quinazolin-6-yl)oxy)piperidin-1-yl)prop-2-en-1-one], the values for the GI50 in assay [1] and in assay [2] were 150 to 1000 nM and more than 1000 nM, respectively.

`C=CC(=O)N1CCC(Oc2cc3c(Nc4cc(-c5ccco5)ccc4OC)ncnc3cc2OC)CC1C(F)(F)F` (centres unmarked) [Example 164, 1-(4-((4-((5-(furan-2-yl)-2-methoxyphenyl)amino)-7-methoxy-quinazolin-6-yl)oxy)-2-(trifluoromethyl)piperidin-1-yl)prop-2-en-1-one]: the values for the GI50 in assay [1] and in assay [2] were not above 150 nM and 150 to 1000 nM, respectively.

On to `C=CC(=O)N1CCC(Oc2cc3c(Nc4cc(-c5ccc(F)cc5F)ccc4OC)ncnc3cc2OC)CC1C(F)(F)F` (centres unmarked) [Example 165, 1-(4-((4-((2′,4′-difluoro-4-methoxy-[1,1′-biphenyl]-3-yl)amino)-7-methoxy-quinazolin-6-yl)oxy)-2-(trifluoromethyl)piperidin-1-yl)prop-2-en-1-one], for which the GI50 in assay [1] was 150 to 1000 nM; in assay [2], more than 1000 nM.

Turning to `C=CC(=O)N1C2CCC1CC(Oc1cc3c(Nc4cc(-c5ccco5)ccc4OC)ncnc3cc1OC)C2` (centres unmarked) [Example 166, 1-(3-((4-((5-(furan-2-yl)-2-methoxyphenyl)amino)-7-methoxy-quinazolin-6-yl)oxy)-8-azabicyclo [3.2.1]octan-8-yl)prop-2-en-1-one], the GI50 in assay [1] and in assay [2] was not above 150 nM in each case.

For the compound `C=CC(=O)N1CCC(Oc2cc3c(Nc4cc(-c5cccc(N)c5)ccc4OC)ncnc3cc2OC)CC1` [Example 180, 1-(4-((4-((3′-amino-4-methoxy-[1,1′-biphenyl]-3-yl)amino)-7-methoxy-quinazolin-6-yl)oxy)piperidin-1-yl)prop-2-en-1-one], the GI50 is more than 1000 nM in assay [1] and 150 to 1000 nM in assay [2].

Regarding `C=CC(=O)N1CC(Oc2cc3c(Nc4cc(-c5cccc(NC(=O)C6CC6)c5)ccc4OC)ncnc3cc2OC)C1` [Example 227, N-(3′-((6-((1-acryloylazetidin-3-yl)oxy)-7-methoxy-quinazolin-4-yl)amino)-4′-methoxy-[1,1′-biphenyl]-3-yl)cyclopropan-carboxamide], the 50% growth inhibitory concentration (GI50) in assay [1] is more than 1000 nM; in assay [2], 150 to 1000 nM.

Regarding `C=CC(=O)N1CC(Oc2cc3c(Nc4cc(-c5ccnc6c(NC(=O)C7CC7)snc56)ccc4OC)ncnc3cc2OC)C1` [Example 234, N-(7-(3-((6-((1-acryloylazetidin-3-yl)oxy)-7-methoxyquinazolin-4-yl)amino)-4-methoxyphenyl)isothiazolo[4,3-b]pyridin-3-yl)cyclopropancarboxamide], the GI50 in assay [1] and in assay [2] was 150 to 1000 nM in each case.

In the case of `C=CC(=O)N1CC(Oc2cc3c(Nc4cc(-c5cccc(NC(=O)N6C(=O)OC[C@H]6c6ccccc6)c5)ccc4OC)ncnc3cc2OC)C1` [Example 236, (R)-N-(3′-((6-((1-acryloylazetidin-3-yl)oxy)-7-methoxyquinazolin-4-yl)amino)-4′-methoxy-[1,1′-biphenyl]-3-yl)-2-oxo-4-phenyloxazolidin-3-carboxamide], the GI50 is more than 1000 nM in assay [1] and 150 to 1000 nM in assay [2].

In the case of `C=CC(=O)N1CC(Oc2cc3c(Nc4cc(-c5cccc(NC(=O)N6C(=O)OC[C@@H]6c6ccccc6)c5)ccc4OC)ncnc3cc2OC)C1` [Example 237, (S)-N-(3′-((6-((1-acryloylazetidin-3-yl)oxy)-7-methoxyquinazolin-4-yl)amino)-4′-methoxy-[1,1′-biphenyl]-3-yl)-2-oxo-4-phenyloxazolidin-3-carboxamide], the GI50 in assay [1] was more than 1000 nM; in assay [2], 150 to 1000 nM.

For `C=CC(=O)N1CCC(Oc2cc3c(Nc4cc(-c5ccco5)ccc4OC)ncnc3cc2OCC)CC1` [Example 238, 1-(4-((7-ethoxy-4-((5-(furan-2-yl)-2-methoxyphenyl)amino)quinazolin-6-yl)oxy)piperidin-1-yl)prop-2-en-1-one], the GI50 in assay [1] and in assay [2] was not above 150 nM in each case.

As for `C=CC(=O)N1CC(Oc2cc3c(Nc4cc(-c5cccs5)ccc4OC4CCN(C)C4)ncnc3cc2OC)C1` (centres unmarked) [Example 240, 1-(3-((7-methoxy-4-((2-((1-methylpyrrolidin-3-yl)oxy)-5-(thiophen-2-yl)phenyl)amino)quinazolin-6-yl)oxy)azetidin-1-yl)prop-2-en-1-one], the concentration for 50% growth inhibition (GI50) in assay [1] and in assay [2] was not above 150 nM in each case.

With `C=CC(=O)N1CC(Oc2cc3c(Nc4cc(-c5ccco5)ccc4OC4CCN(C)C4)ncnc3cc2OC)C1` (centres unmarked) [Example 241, 1-(3-((4-((5-(furan-2-yl)-2-((1-methylpyrrolidin-3-yl)oxy)phenyl)amino)-7-methoxyquinazolin-6-yl)oxy)azetidin-1-yl)prop-2en-1-one], the GI50 in assay [1] and in assay [2] was not above 150 nM each time.

For `C=CC(=O)N1CC(Oc2cc3c(Nc4cc(-c5ccn6ncnc6c5)ccc4OC4CCN(C)C4)ncnc3cc2OC)C1` (centres unmarked) [Example 242], the GI50 was not above 150 nM in assay [1] and 150 to 1000 nM in assay [2].

Values taken from patent US20240246940A1, “HETEROARYL DERIVATIVE COMPOUND AND USE THEREOF” (VORONOI INC., priority 2021, published 2024).
